In paper PMC4843002, “Identification of pyrazolopyridazinones as PDEδ inhibitors” (Nature Communications, 2016):

Assays:
[1] = tested on: PANC-1 cells; format: cell-based
Experimental: (§1) RTCA was performed using 16-well E-plates on the Dual Plate xCELLigence instrument (Roche Applied Science, Indianapolis, IN). This system measures a dimensionless parameter called cell index, which evaluates the ionic environment at an electrode/solution interface and integrates information on cell number. Depending on the cell line 5 × 10^3–1 × 10^4 cells were plated in each well of the 16-well plates in 200 μl of cell culture medium. After seeding, cells were allowed to settle for 30 min at room temperature before being inserted into the xCELLigence instrument in a humidified incubator at 37 °C with 10% CO2. For RTCA experiments assaying cells stably expressing the inducible shRNA transgene, cells were seeded onto the E-plates in medium supplemented with 200 ng ml^−1 doxycycline. For RTCA experiments, the cells were treated with Deltarasin or Deltazinone 1 after reaching a steady growth (24 h/48 h). The small-molecule inhibitors were added at indicated time points and in the indicated concentrations. […] Continuous impedance measurements were then monitored every 15 min for up to 200 h. All assays were performed in duplicates. The cell index was normalized to 1 at the time point of drug administration. […]

[2] = tested on: BxPC-3 cells; format: cell-based
Experimental: as §1

[3] = biological target: T1, 5-HT transporter (h) (Homo sapiens, UniProt P31645); assay: Cerep binding, antagonist radioligand; conditions: read-out: % Inhibition of Control Specific Binding
T1 construct: purchased Eurofins Pharma Discovery Services (CEREP diversity panel)
T1 sequence (P31645 whole entry): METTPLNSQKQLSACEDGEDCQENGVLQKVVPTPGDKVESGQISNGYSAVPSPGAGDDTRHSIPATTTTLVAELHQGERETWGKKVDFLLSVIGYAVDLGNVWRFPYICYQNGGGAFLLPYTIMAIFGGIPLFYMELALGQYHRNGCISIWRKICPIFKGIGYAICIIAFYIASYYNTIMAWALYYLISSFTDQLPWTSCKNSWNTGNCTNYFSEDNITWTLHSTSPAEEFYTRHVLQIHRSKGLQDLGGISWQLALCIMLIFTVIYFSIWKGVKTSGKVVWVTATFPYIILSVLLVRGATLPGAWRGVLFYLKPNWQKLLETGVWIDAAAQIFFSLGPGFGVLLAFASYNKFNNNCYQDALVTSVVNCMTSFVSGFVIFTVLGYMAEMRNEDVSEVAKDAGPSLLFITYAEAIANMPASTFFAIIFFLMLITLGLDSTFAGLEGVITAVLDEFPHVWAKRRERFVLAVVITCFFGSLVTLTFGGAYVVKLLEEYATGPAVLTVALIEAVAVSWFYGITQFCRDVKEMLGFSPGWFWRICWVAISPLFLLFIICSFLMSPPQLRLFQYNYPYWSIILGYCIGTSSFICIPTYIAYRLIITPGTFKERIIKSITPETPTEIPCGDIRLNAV

[4] = tested on: GABA transporter; assay: Cerep binding, antagonist radioligand; conditions: 5 µM
[5] = tested on: KV channel; assay: Cerep binding, antagonist radioligand; conditions: 5 µM
[6] = biological target: T2, NK3 (h) (Homo sapiens, UniProt P29371); assay: Cerep binding, antagonist radioligand; conditions: read-out: % Inhibition of Control Specific Binding
T2 construct: purchased Eurofins Pharma Discovery Services (CEREP diversity panel)
T2 sequence (P29371 whole entry): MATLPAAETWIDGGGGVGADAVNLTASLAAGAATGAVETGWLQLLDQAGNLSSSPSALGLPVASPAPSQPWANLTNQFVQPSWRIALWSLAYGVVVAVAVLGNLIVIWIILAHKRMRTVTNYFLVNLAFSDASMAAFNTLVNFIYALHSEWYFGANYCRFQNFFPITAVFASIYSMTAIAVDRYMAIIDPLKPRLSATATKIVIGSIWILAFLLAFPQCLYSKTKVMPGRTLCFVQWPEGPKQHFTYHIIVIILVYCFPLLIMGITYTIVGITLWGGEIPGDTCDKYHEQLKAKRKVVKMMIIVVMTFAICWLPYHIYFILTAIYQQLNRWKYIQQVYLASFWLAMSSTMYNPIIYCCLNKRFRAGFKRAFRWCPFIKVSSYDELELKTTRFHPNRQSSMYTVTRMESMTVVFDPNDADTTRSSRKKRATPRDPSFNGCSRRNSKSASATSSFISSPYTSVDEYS

[7] = tested on: S6P phosphorylation; assay: western blot, S6P phosphorylation in Panc-Tu-I; conditions: for EGF-induced S6P phosphorylation: 1 h, 5 μM Deltarasin or 20 μM Deltazinone 1, 5 min EGF
Experimental: (§2) To examine whether PDEδ inhibition by Deltarasin and Deltazinone 1 downregulates the signal transduction via these pathways, we examined the phosphorylation of extracellular signal regulated kinase (Erk) and S6 Ribosomal Protein (S6P) in the oncogenic KRas-dependent Panc-Tu-1 and KRas-independent PANC-1 cells. […] Cells were lysed with RIPA-buffer (20 mM Tris pH 7.5, 150 mM NaCl, 0.5 mM Na2 EDTA, 1 % sodium deoxycholate, 0.1% sodium dodecyl sulfate, 1% IGEPAL supplemented with Complete Mini EDTA-free protease inhibitor (Roche Applied Science) and 1% phosphatase inhibitor cocktail 2 and 3 (P5726 and P0044, Sigma Aldrich), scraped off after 5 min on ice and centrifuged at 14,000g for 20 min at 4 °C. SDS–polyacrylamide gel electrophoresis was carried out with 10–25 μg of whole-cell lysate from each sample. The gels were blotted onto polyvinylidene difluoride membrane (Millipore) and blocked for 1 h at room temperature. […] Blots were scanned on a LI-COR Odyssey imaging system.
(§3) Western blots were quantified using ImageJ. The background of the blots was subtracted by applying the rolling ball subtraction with a radius of 50 pixels. Afterwards the integrated intensity of the bands was measured.

[8] = biological target: T3, A1 (h) (Homo sapiens, UniProt P30542); assay: Cerep binding, antagonist radioligand; conditions: read-out: % Inhibition of Control Specific Binding
T3 construct: purchased Eurofins Pharma Discovery Services (CEREP diversity panel)
T3 sequence (P30542 whole entry): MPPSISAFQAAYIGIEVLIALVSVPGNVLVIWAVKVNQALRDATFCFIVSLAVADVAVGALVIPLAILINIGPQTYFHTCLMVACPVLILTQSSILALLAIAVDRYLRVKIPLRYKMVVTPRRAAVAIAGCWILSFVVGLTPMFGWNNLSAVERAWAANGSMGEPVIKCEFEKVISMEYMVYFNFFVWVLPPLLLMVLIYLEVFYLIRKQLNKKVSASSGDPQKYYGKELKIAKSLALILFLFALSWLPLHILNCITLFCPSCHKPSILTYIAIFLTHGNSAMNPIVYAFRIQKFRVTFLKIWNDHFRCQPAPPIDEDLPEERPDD

[9] = biological target: T4, N neuronal alpha 4beta 2 (h) (Homo sapiens, UniProt P17787+P43681); assay: Cerep binding, agonist radioligand; conditions: read-out: % Inhibition of Control Specific Binding
T4 construct: purchased Eurofins Pharma Discovery Services (CEREP diversity panel)

[10] = tested on: P2X; assay: Cerep binding, agonist radioligand; conditions: 5 µM
[11] = tested on: Na+ channel (site 2); assay: Cerep binding, antagonist radioligand; conditions: 5 µM
[12] = tested on: ER (non-selective) (h); assay: Cerep binding, agonist radioligand; design: species or system human; conditions: 5 µM
[13] = tested on: PCP; assay: Cerep binding, antagonist radioligand; conditions: 5 µM
[14] = biological target: T5, A3 (h) (Homo sapiens, UniProt P0DMS8); assay: Cerep binding, agonist radioligand; conditions: read-out: % Inhibition of Control Specific Binding
T5 construct: purchased Eurofins Pharma Discovery Services (CEREP diversity panel)
T5 sequence (P0DMS8 whole entry): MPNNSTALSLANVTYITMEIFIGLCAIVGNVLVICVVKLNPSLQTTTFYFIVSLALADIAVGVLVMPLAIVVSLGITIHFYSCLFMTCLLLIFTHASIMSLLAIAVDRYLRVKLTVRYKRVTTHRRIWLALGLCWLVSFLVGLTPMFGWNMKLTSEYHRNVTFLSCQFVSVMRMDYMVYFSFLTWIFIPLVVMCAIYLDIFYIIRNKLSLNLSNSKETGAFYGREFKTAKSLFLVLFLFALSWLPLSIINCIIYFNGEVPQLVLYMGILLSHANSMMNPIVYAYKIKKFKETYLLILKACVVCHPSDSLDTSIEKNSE

[15] = biological target: T6, PDE4D2 (h) (Homo sapiens, UniProt Q08499); assay: Cerep enzyme and cell-based assays; format: biochemical; conditions: read-out: % Inhibition of Control Values
T6 construct: Eurofins Pharma Discovery Services (CEREP diversity panel, outsourced assay)
T6 sequence (Q08499 303-809 limits assumed): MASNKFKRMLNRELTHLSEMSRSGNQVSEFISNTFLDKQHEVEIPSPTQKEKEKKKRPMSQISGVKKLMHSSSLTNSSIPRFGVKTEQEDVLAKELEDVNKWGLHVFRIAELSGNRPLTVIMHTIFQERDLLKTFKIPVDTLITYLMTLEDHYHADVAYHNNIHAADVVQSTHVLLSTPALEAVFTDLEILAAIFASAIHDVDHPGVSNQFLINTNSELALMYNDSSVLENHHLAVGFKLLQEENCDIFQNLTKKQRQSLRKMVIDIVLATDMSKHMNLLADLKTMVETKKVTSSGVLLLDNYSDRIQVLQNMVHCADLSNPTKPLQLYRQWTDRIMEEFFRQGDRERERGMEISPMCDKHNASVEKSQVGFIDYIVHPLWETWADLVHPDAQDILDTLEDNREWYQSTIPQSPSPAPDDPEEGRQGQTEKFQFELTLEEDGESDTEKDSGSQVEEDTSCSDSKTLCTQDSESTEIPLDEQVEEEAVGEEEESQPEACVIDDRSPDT

[16] = tested on: M (non-selective); assay: Cerep binding, antagonist radioligand; conditions: 5 µM
[17] = tested on: SKCa channel; assay: Cerep binding, antagonist radioligand; conditions: 5 µM
[18] = tested on: Ca2+ channel (L, verapamil site) (phenylalkylamine); assay: Cerep binding, antagonist radioligand; conditions: 5 µM
[19] = tested on: Cl- channel (GABA-gated); assay: Cerep binding, antagonist radioligand; conditions: 5 µM
[20] = biological target: T7, NK2 (h) (Homo sapiens, UniProt P21452); assay: Cerep binding, agonist radioligand; conditions: read-out: % Inhibition of Control Specific Binding
T7 construct: purchased Eurofins Pharma Discovery Services (CEREP diversity panel)
T7 sequence (P21452 whole entry): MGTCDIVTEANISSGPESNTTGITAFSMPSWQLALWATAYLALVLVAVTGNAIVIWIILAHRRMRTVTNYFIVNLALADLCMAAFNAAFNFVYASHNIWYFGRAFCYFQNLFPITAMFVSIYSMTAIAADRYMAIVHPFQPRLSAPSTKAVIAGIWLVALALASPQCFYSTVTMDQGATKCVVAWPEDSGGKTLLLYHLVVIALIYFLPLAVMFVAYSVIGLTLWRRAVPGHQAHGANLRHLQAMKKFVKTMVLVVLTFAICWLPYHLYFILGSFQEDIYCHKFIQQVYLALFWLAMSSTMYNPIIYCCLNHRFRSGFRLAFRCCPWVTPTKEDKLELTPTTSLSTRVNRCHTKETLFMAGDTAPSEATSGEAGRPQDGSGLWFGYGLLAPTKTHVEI

[21] = biological target: T8, CCK2 (CCKB) (h) (Homo sapiens, UniProt P32239); assay: Cerep binding, agonist radioligand; conditions: read-out: % Inhibition of Control Specific Binding
T8 construct: purchased Eurofins Pharma Discovery Services (CEREP diversity panel)
T8 sequence (P32239 whole entry): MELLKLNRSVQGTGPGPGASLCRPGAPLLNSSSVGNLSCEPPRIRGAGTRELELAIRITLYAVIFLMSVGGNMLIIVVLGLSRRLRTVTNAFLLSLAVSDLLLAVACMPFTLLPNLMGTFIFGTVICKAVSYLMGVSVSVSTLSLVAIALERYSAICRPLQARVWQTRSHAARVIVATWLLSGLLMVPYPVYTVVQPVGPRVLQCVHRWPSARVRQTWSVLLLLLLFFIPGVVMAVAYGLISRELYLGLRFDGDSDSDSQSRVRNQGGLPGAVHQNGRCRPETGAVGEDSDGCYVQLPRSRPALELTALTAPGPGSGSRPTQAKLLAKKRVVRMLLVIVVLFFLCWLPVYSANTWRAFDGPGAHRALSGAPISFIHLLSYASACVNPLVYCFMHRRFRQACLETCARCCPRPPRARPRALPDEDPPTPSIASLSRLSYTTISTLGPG

[22] = biological target: T9, GR (h) (Homo sapiens, UniProt P04150); assay: Cerep binding, agonist radioligand; conditions: read-out: % Inhibition of Control Specific Binding
T9 construct: purchased Eurofins Pharma Discovery Services (CEREP diversity panel)

[23] = biological target: T10, ETA (h) (Homo sapiens, UniProt P25101); assay: Cerep binding, agonist radioligand; conditions: read-out: % Inhibition of Control Specific Binding
T10 construct: purchased Eurofins Pharma Discovery Services (CEREP diversity panel)
T10 sequence (P25101 21-427): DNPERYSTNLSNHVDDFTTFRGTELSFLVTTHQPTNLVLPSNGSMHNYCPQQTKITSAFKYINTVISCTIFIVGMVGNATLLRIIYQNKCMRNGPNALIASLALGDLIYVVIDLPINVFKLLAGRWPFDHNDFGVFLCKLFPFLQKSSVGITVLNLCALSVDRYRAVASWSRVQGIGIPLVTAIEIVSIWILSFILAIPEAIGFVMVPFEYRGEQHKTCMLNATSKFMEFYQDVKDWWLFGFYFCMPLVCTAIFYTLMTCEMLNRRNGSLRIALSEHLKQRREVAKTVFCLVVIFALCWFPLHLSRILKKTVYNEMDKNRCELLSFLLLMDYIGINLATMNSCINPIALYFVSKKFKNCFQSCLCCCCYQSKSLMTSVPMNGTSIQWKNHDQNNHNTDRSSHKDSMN

[24] = biological target: T11, D4.4 (h) (Homo sapiens, UniProt P21917); assay: Cerep binding, antagonist radioligand; conditions: read-out: % Inhibition of Control Specific Binding
T11 construct: purchased Eurofins Pharma Discovery Services (CEREP diversity panel)
T11 sequence (P21917 whole entry): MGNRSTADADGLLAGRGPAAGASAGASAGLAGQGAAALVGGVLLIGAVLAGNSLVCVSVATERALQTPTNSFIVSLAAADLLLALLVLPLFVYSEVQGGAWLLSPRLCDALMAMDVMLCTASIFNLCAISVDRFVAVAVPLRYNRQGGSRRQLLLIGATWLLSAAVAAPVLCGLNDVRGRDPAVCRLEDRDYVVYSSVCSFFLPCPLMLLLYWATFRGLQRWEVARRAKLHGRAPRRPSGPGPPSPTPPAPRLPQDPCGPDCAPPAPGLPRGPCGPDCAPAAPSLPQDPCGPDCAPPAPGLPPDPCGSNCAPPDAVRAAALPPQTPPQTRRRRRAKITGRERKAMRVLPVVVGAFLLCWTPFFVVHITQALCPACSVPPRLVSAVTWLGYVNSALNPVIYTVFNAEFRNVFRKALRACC

[25] = tested on: Panc-Tu-I cells; assay: RTCA growth profile; format: cell-based, human
Experimental: RTCA was performed using 16-well E-plates on the Dual Plate xCELLigence instrument (Roche Applied Science, Indianapolis, IN). This system measures a dimensionless parameter called cell index, which evaluates the ionic environment at an electrode/solution interface and integrates information on cell number. Depending on the cell line 5 × 10^3–1 × 10^4 cells were plated in each well of the 16-well plates in 200 μl of cell culture medium. After seeding, cells were allowed to settle for 30 min at room temperature before being inserted into the xCELLigence instrument in a humidified incubator at 37 °C with 10% CO2. For RTCA experiments assaying cells stably expressing the inducible shRNA transgene, cells were seeded onto the E-plates in medium supplemented with 200 ng ml^−1 doxycycline. […] The small-molecule inhibitors were added at indicated time points and in the indicated concentrations. […] All assays were performed in duplicates. The cell index was normalized to 1 at the time point of drug administration.

[26] = tested on: NMDA; assay: Cerep binding, antagonist radioligand; conditions: 5 µM
[27] = tested on: adenylyl cyclase (activator effect); assay: Cerep enzyme and cell-based assays; format: biochemical; conditions: 5 µM
[28] = biological target: T12, IP (PGI2) (h) (Homo sapiens, UniProt P43119); assay: Cerep binding, agonist radioligand; conditions: read-out: % Inhibition of Control Specific Binding
T12 construct: purchased Eurofins Pharma Discovery Services (CEREP diversity panel)
T12 sequence (P43119 whole entry): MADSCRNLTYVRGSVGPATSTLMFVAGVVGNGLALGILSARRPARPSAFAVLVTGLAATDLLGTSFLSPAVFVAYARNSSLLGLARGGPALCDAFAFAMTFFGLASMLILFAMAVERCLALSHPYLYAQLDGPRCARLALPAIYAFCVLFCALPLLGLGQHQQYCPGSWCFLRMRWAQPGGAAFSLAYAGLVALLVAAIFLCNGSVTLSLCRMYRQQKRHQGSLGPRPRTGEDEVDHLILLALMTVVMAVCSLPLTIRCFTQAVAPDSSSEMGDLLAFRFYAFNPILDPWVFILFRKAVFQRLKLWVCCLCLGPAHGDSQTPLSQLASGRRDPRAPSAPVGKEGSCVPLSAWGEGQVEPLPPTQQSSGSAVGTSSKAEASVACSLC

[29] = tested on: Ca2+ channel (L, diltiazem site) (benzothiazepines); assay: Cerep binding, antagonist radioligand; conditions: 5 µM
[30] = tested on: Y (non-selective); assay: Cerep binding, agonist radioligand; conditions: 5 µM
[31] = tested on: alpha 2 (non-selective); assay: Cerep binding, antagonist radioligand; conditions: 5 µM
[32] = biological target: T13, H1 (h) (Homo sapiens, UniProt P35367); assay: Cerep binding, antagonist radioligand; conditions: read-out: % Inhibition of Control Specific Binding
T13 construct: purchased Eurofins Pharma Discovery Services (CEREP diversity panel)
T13 sequence (P35367 whole entry): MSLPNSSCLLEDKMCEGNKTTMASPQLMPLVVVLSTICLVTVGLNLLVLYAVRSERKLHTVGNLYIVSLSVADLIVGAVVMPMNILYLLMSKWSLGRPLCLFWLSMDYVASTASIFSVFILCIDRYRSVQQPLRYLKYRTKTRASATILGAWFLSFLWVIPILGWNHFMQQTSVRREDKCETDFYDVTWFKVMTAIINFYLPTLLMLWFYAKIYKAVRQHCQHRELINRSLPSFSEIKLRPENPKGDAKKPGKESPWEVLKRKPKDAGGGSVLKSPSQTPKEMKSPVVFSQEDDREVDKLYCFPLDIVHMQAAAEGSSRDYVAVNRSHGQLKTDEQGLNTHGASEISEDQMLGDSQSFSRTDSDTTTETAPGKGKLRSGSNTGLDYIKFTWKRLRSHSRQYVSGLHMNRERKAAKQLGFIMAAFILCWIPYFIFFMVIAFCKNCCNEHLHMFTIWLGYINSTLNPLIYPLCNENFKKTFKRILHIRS

[33] = biological target: T14, H3 (h) (Homo sapiens, UniProt Q9Y5N1); assay: Cerep binding, agonist radioligand; conditions: read-out: % Inhibition of Control Specific Binding
T14 construct: purchased Eurofins Pharma Discovery Services (CEREP diversity panel)

[34] = tested on: Erk phosphorylation; assay: western blot, Erk phosphorylation in Panc-Tu-I
Experimental: as §2, §3

[35] = tested on: COMT (catechol-O-methyl transferase); assay: Cerep enzyme and cell-based assays; format: biochemical; conditions: 5 µM
[36] = 20 μM, longer incubation times (>3 h)
[37] = 1 h, 5 μM Deltarasin or 20 μM Deltazinone 1, 5 min EGF

Structure (SMILES): Cc1ccc(-n2nc3c(=O)n(CCCC(=O)NCC(C)c4ccccc4)nc(C)c3c2C)cc1 (stereo not shown) [2k]
- effect on growth ([1]; PANC-1, doses up to 24 μM): little or no growth inhibitory effect
- effect on growth ([2]; BxPC-3, doses up to 24 μM): little or no growth inhibitory effect
- inhibition at 5 µM [3]: -8%
- % Inhibition of Control Specific Binding [4]: -1%
- % Inhibition of Control Specific Binding [5]: -8%
- inhibition at 5 µM [6]: 17%
- S6P phosphorylation [7, 36]: further decreased
- EGF-induced S6P phosphorylation [7]: reduced S6P phosphorylation
- inhibition at 5 µM [8]: 0%
- inhibition at 5 µM [9]: -8%
- % Inhibition of Control Specific Binding [10]: 1%
- % Inhibition of Control Specific Binding [11]: 4%
- % Inhibition of Control Specific Binding [12]: -15%
- % Inhibition of Control Specific Binding [13]: -8%
- inhibition at 5 µM [14]: 59%
- inhibition at 5 µM [15]: 3%
- % Inhibition of Control Specific Binding [16]: 21%
- % Inhibition of Control Specific Binding [17]: 0%
- % Inhibition of Control Specific Binding [18]: -23%
- % Inhibition of Control Specific Binding [19]: 17%
- inhibition at 5 µM [20]: -4%
- inhibition at 5 µM [21]: -22%
- inhibition at 5 µM [22]: -9%
- inhibition at 5 µM [23]: -7%
- inhibition at 5 µM [24]: 2%
- onset of cell death after treatment ([25]; 24 μM): ~13 h
- time after administration at which decreasing cell indices indicated cell death ([25]; doses higher than 3 μM): ~30 h
- % Inhibition of Control Specific Binding [26]: 1%
- % Inhibition of Control Values [27]: 2%
- inhibition at 5 µM [28]: -4%
- % Inhibition of Control Specific Binding [29]: -4%
- % Inhibition of Control Specific Binding [30]: -19%
- % Inhibition of Control Specific Binding [31]: 3%
- inhibition at 5 µM [32]: 2%
- inhibition at 5 µM [33]: -10%
- EGF-induced Erk phosphorylation [34, 36]: reduced
- EGF-induced Erk phosphorylation [34, 37]: did not significantly affect
- % Inhibition of Control Values [35]: 11%

Structure (SMILES): c1ccc(Cn2c(-c3ccc(OC[C@H](C4CCNCC4)n4c(-c5ccccc5)nc5ccccc54)cc3)nc3ccccc32)cc1 [Deltarasin, reference compound]
- concentration resulting in rapid cell death (unspecific cytotoxicity) ([1]; human): above 9 μM
- concentration resulting in rapid cell death (unspecific cytotoxicity) ([2]; human): above 9 μM
- inhibition at 5 µM [3]: 39%
- % Inhibition of Control Specific Binding [4]: 20%
- % Inhibition of Control Specific Binding [5]: -2%
- inhibition at 5 µM [6]: 61%
- EGF-induced S6P phosphorylation [7]: reduced in both lines
- inhibition at 5 µM [8]: 37%
- inhibition at 5 µM [9]: -10%
- % Inhibition of Control Specific Binding [10]: 10%
- % Inhibition of Control Specific Binding [11]: 83%
- % Inhibition of Control Specific Binding [12]: -19%
- % Inhibition of Control Specific Binding [13]: -6%
- inhibition at 5 µM [14]: 70%
- inhibition at 5 µM [15]: 7%
- % Inhibition of Control Specific Binding [16]: 96%
- % Inhibition of Control Specific Binding [17]: 3%
- % Inhibition of Control Specific Binding [18]: 54%
- % Inhibition of Control Specific Binding [19]: 2%
- inhibition at 5 µM [20]: 97%
- inhibition at 5 µM [21]: 29%
- inhibition at 5 µM [22]: 40%
- inhibition at 5 µM [23]: 2%
- inhibition at 5 µM [24]: 0%
- onset of detectable cell death post treatment ([25]; 5 μM): ~9 h
- % Inhibition of Control Specific Binding [26]: 11%
- % Inhibition of Control Values [27]: 2%
- inhibition at 5 µM [28]: 8%
- % Inhibition of Control Specific Binding [29]: 61%
- % Inhibition of Control Specific Binding [30]: 10%
- % Inhibition of Control Specific Binding [31]: 1%
- inhibition at 5 µM [32]: 78%
- inhibition at 5 µM [33]: -2%
- EGF-induced Erk phosphorylation [34, 37]: reduced
- % Inhibition of Control Values [35]: 4%
